Experiments:
[1] = differential scanning calorimetry (DSC), thermal stability; assay type: physicochemical; details: thermal decomposition
[2] = system: ANKA strain of P. Berghei; test: single dose STI in vivo screen in infected Moro SPF mice; details: for Activity (%) po / Activity (%) sc: percent reduction in parasitemia day 3 post-infection; for Activity (%) po / Survival (days) po: single 10 mg/kg po; for Activity (%) sc / Survival (days) sc: single 10 mg/kg sc; for antimalarial activity, overall assessment: overall judgement of in vitro and in vivo data of Table 2
Protocol: In the single dose STI in vivo screen, Moro SPF mice infected with the ANKA strain of P. Berghei (groups of three mice) were treated on day one post-infection with trioxolanes dissolved or suspended in 3% ethanol and 7% Tween 80. […] Antimalarial activity was measured by percent redution in parasitemia on day three post-infection and survival times compared to an untreated control group. Survival to day 30 post-infection is considered to be a cure.

P. berghei = test: 1-day Peters test against P. berghei in vivo; details: 1 day, po

SMILES | Tm dec. (° C.) [1] [°C] | further results
O=C1CC2CC(C1)CC1(C2)OOC2(O1)C1CC3CC(C1)CC2C3 (stereo not shown) [OZ13, Adamantane-2-spiro-3′-1′,2′,4′-trioxolane-5′-spiro-3″-7″-oxobicyclo[3.3.1]nonane] | 170.1 | 
ON=C1CCC2(CC1)OOC1(O2)C2CC3CC(C2)CC1C3 (stereo not shown) [OZ16, Adamantane-2-spiro-3′-8′-hydroxyimino-1′,2′,4′-trioxaspiro[4.5]decane] | 153.6 | 
CC1(C)CC(C)(C)CC2(C1)OOC1(O2)C2CC3CC(C2)CC1C3 (stereo not shown) [OZ26, Adamantane-2-spiro-3′-7′,9′-tetramethyl-1′,2′,4′-trioxaspiro[4.5]decane] | 173.4 | 
CC(C)(C)ON=C1CCC2(CC1)OOC1(O2)C2CC3CC(C2)CC1C3 (stereo not shown) [OZ28, Adamantane-2-spiro-3′-8′-t-butyloxyimino-1′,2′,4′-trioxaspiro[4.5]decane] | 162.4 | 
CC1(C)CCC2(CC1)OOC1(O2)C2CC3CC(C2)CC1C3 (stereo not shown) [OZ33, Adamantane-2-spiro-3′-8′,8′-dimethyl-1′,2′,4′-trioxaspiro[4.5]decane] | 163.1 | 
c1ccc(C2(c3ccccc3)CCC3(CC2)OOC2(O3)C3CC4CC(C3)CC2C4)cc1 (stereo not shown) [OZ34, Adamantane-2-spiro-3′-8′,8′-diphenyl-1′,2′,4′-trioxaspiro[4.5]decane] | 181.4 | Activity (%) po [2]: 0/0%; Activity (%) sc [2]: 0/0%
CC(C)(C)OC(=O)N1CCC2(CC1)OOC1(O2)C2CC3CC(C2)CC1C3 (stereo not shown) [OZ35, Adamantane-2-spiro-3′-8′-t-butoxycarbonyl-1′,2′,4′-trioxa-8′-azaspiro[4.5]decane] | 159.4 | 
CON=C1CC2CC3(CC2C1)OOC1(O3)C2CC3CC(C2)CC1C3 (stereo not drawn) [OZ37, Adamantane-2-spiro-3′-1′,2′,4′-trioxolane-5′-spiro-3″-7″-methoxyimino-cis-bicyclo[3.3.0]octane] | 151.2 | 
O=C1c2ccccc2C(=O)N1N=C1CCC2(CC1)OOC1(O2)C2CC3CC(C2)CC1C3 (stereo not shown) [OZ38, Adamantane-2-spiro-3′-8′-(N-phthalimido)imino-1′,2′,4′-trioxaspiro[4.5]decane] | 165.1 | 
CC(C)C1CCC2(CC1)OOC1(O2)C2CC3CC(C2)CC1C3 (stereo not shown) [OZ40, Adamantane-2-spiro-3′-8′-isopropyl-1′,2′,4′-trioxaspiro[4.5]decane] | 164.2 | 
Fc1ccc(C2CCC3(CC2)OOC2(O3)C3CC4CC(C3)CC2C4)cc1 (stereo not shown) [OZ41, Adamantane-2-spiro-3′-8′-(4′-fluorophenyl)-1′,2′,4′-trioxaspiro[4.5]decane] | 159.0 | P. berghei (1 day) ED50 po (P. berghei): 2.8 mg/kg; P. berghei (1 day) ED90 po (P. berghei): 5.1 mg/kg
c1ccc(C2(c3ccccc3)OOC3(O2)C2CC4CC(C2)CC3C4)cc1 (stereo not shown) [OZ42, Adamantane-2-spiro-3′-5′,5′-diphenyl-1′,2′,4′-trioxolane] | 159.1 | 
Fc1ccc(C2(c3ccc(F)cc3)OOC3(O2)C2CC4CC(C2)CC3C4)cc1 (stereo not shown) [OZ44, Adamantane-2-spiro-3′-5′, 5′-bis(4′-fluorophenyl)-1′,2′,4′-trioxolane] | 157.5 | 
Fc1c(F)c(F)c(C2(c3c(F)c(F)c(F)c(F)c3F)OOC3(O2)C2CC4CC(C2)CC3C4)c(F)c1F (stereo not shown) [OZ45, Adamantane-2-spiro-3′-5′,5′-bis(2′,3′,4′,5′,6′-pentafluorophenyl)-5′,2′,4′-trioxolane] | 133.7 | 
FC(F)(F)c1cccc(C2(c3cccc(C(F)(F)F)c3)OOC3(O2)C2CC4CC(C2)CC3C4)c1 (stereo not shown) [OZ46, Adamantane-2-spiro-3′-5′,5′-bis[3′-(trifluoromethyl)phenyl]-1′,2′,4′-trioxolane] | 161.3 | 
Clc1ccc(C2CCC3(CC2)OOC2(O3)C3CC4CC(C3)CC2C4)cc1 (stereo not shown) [OZ47, Adamantane-2-spiro-3′-8′-(4′-chlorophenyl)-1′,2′,4′-trioxaspiro[4.5]decane] | 159.3 | 
FC(F)(F)c1ccc(C2CCC3(CC2)OOC2(O3)C3CC4CC(C3)CC2C4)cc1 (stereo not shown) [OZ48, Adamantane-2-spiro-3′-8′-[4′-(trifluoromethyl)phenyl]-1′,2′,4′-trioxaspiro[4.5]decane] | 156.1 | 
Cc1ccc(S(=O)(=O)N2CCC3(CC2)OOC2(O3)C3CC4CC(C3)CC2C4)cc1 (stereo not shown) [OZ51, Adamantane-2-spiro-3′-8′-(p-toluenesulfonyl)-1′,2′,4′-trioxa-8′-azaspiro[4.5]decane] | 152.3 | 

SMILES | Tm dec. (° C.) [1] [°C] | further results
c1ccc(CC2(Cc3ccccc3)OOC3(O2)C2CC4CC(C2)CC3C4)cc1 (stereo not shown) [OZ52, Adamantane-2-spiro-3′-5′,5′-dibenzyl-1′,2′,4′-trioxolane] | 154.9 | 
CCOC(=O)CCC(=O)N1CCC2(CC1)OOC1(O2)C2CC3CC(C2)CC1C3 (stereo not shown) [OZ53, Adamantane-2-spiro-3′-8′-[3′-(ethoxycarbonyl)propionyl]-1′,2′,4′-trioxa-8′-azaspiro[4.5]decane] | 152.7 | 
O=C(O)CON=C1CCC2(CC1)OOC1(O2)C2CC3CC(C2)CC1C3 (stereo not shown) [OZ54, Adamantane-2-spiro-3′-8′-carboxymethoxyimino-1′,2′,4′-trioxaspiro[4.5]decane] | 149.3 | Survival (days) po [2]: 7.0/7.0 days; Survival (days) sc [2]: 7.0/7.0 days
CS(=O)(=O)N1CCC2(CC1)OOC1(O2)C2CC3CC(C2)CC1C3 (stereo not shown) [OZ56, Adamantane-2-spiro-3′-8′-methanesulfonyl-1′,2′,4′-trioxa-8′-azaspiro[4.5]decane] | 158.0 | 
O=S(=O)(c1ccc(Cl)cc1)N1CCC2(CC1)OOC1(O2)C2CC3CC(C2)CC1C3 (stereo not shown) [OZ57, Adamantane-2-spiro-3′-8′-(4′-chlorobenzenesulfonyl)-1′,2′,4′-trioxa-8′-azaspiro[4.5]decane] | 158.0 | 
O=C(O)CCC(=O)N1CCC2(CC1)OOC1(O2)C2CC3CC(C2)CC1C3 (stereo not shown) [OZ58, Adamantane-2-spiro-3′-8′-(3′-carboxypropionyl)-1′,2′,4′-trioxa-8′-azaspiro[4.5]decane] | 147.0 | 
COc1ccc(S(=O)(=O)N2CCC3(CC2)OOC2(O3)C3CC4CC(C3)CC2C4)cc1 (stereo not shown) [OZ59, Adamantane-2-spiro-3′-8′-(4′-methoxybenzenesulfonyl)-1′,2′,4′-trioxa-8′-azaspiro[4.5]decane] | 152.2 | 
O=S(=O)(c1ccccc1)N1CCC2(CC1)OOC1(O2)C2CC3CC(C2)CC1C3 (stereo not shown) [OZ60, Adamantane-2-spiro-3′-8′-benzenesulfonyl-1′, 2′,4′-trioxa-8′-azaspiro[4.5]decane] | 152.6 | 
N#CC1(c2ccccc2)CCC2(CC1)OOC1(O2)C2CC3CC(C2)CC1C3 (stereo not shown) [OZ63, Adamantane-2-spiro-3′-8′-cyano-8′-phenyl-1′,2′,4′-trioxaspiro[4.5]decane] | 158.3 | 
CC(C)(C)COC(=O)C1CCC2(CC1)OOC1(O2)C2CC3CC(C2)CC1C3 (stereo not shown) [OZ64, Adamantane-2-spiro-3′-8′-neopentyloxycarbonyl-1′,2′,4′-trioxaspiro[4.5]decane] | 163.8 | 
c1ccc(C2CCC3(CC2)OOC2(O3)C3CCCC2CCC3)cc1 (stereo not shown) [OZ67, Bicyclo[3.3.1]nonane-9-spiro-3′-8′-phenyl-1′,2′,4′-trioxaspiro[4.5]decane] | 162.3 | antimalarial activity, overall assessment [2]: completely inactive; Activity (%) po [2]: 0/0%; Activity (%) sc [2]: 0/0%; Survival (days) po [2]: 5.0/5.0 days; Survival (days) sc [2]: 5.0/5.0 days
CC1(C)COC2(CCC3(CC2)OOC2(O3)C3CCCC2CCC3)OC1 (stereo not shown) [OZ68, Bicyclo[3.3.1]nonane-9-spiro-3′-11′,11′-dimethyl-1′,2′,4′,9′,13′-pentaoxadispiro[4.2.5.2]pentadecane] | 163.1 | antimalarial activity, overall assessment [2]: similarly inactive
CC(=O)OC1(c2ccc(F)cc2)CCC2(CC1)OOC1(O2)C2CC3CC(C2)CC1C3 (stereo not shown) [OZ69, Adamantane-2-spiro-3′-8′-acetoxy-8′-(4′-fluorophenyl)-1′,2′,4′-trioxaspiro[4.5]decane] | 164.1 | Survival (days) po [2]: 6.3/6.3 days; Survival (days) sc [2]: 6.3/6.3 days
CCN(CC)C(=O)C1CCC2(CC1)OOC1(O2)C2CC3CC(C2)CC1C3 (stereo not shown) [OZ73, Adamantane-2-spiro-3′-8′-diethylaminocarbonyl-1′,2′,4′-trioxaspiro[4.5] decane] | 160.2 | antimalarial activity, overall assessment [2]: only weakly active
O=C(OC1CCC2(CC1)OOC1(O2)C2CC3CC(C2)CC1C3)c1ccccc1 (stereo not shown) [OZ74, Adamantane-2-spiro-3′-8′-benzoyloxy-1′,2′,4′-trioxaspiro[4.5]decane] | 161.2 | 
N#CC1(c2ccc(Cl)c(Cl)c2)CCC2(CC1)OOC1(O2)C2CC3CC(C2)CC1C3 (stereo not shown) [OZ75, Adamantane-2-spiro-3′-8′-cyano-8′-(3′,4′-dichlorophenyl)-1′,2′,4′-trioxaspiro[4.5]decane] | 159.1 | 
OC1(c2ccc(F)cc2)CCC2(CC1)OOC1(O2)C2CC3CC(C2)CC1C3 (stereo not shown) [OZ76, Adamantane-2-spiro-3′-8′-(4′-fluorophenyl)-8′-hydroxy-1′,2′,4′-trioxaspiro[4.5]decane] | 149.6 | 
COC1(c2ccc(F)cc2)CCC2(CC1)OOC1(O2)C2CC3CC(C2)CC1C3 (stereo not shown) [OZ77, Adamantane-2-spiro-3′-8′-(4′-fluorophenyl)-8′-methoxy-1′,2′,4′-trioxaspiro[4.5]decane] | 161.3 | antimalarial activity, overall assessment [2]: excellent activity

Source: US6486199B1, “Spiro and dispiro 1,2,4-trioxolane antimalarials” (Medicines for Malaria Venture MMV International Centre …, priority 2001, dated 2002)
